Source: patent US5317010A, “Parathyroid hormone analogues substituted at AA 25, 26, 27, and use in osteoporosis treatment” (Pang; Peter K. T., priority 1991, dated 1994)
“Also recorded” adds a separate entry of the source. Ends that are not written are not given here.

B1: Cs2001: human PTH 1-84, no substitution (SEQ ID NO:2) (peptide)
chain: SVSEIQLMHNLGKHLNSMERVEWLRKKLQDVHNFVALGASIAYRDGSSQRPRKKEDNVLVESHQKSLGEADKADVDVLIKAKPQ

Columns and labels:
[1] = system: UMR-106 rat osteosarcoma cells; assay: Intracellular free calcium concentration (FURA-2) with KCl stimulation; assay type: cell-based; settings: cultured UMR osteoblast cells, in the presence of KCl
Description: Because osteoporosis is a progressive syndrome, a model is required and the use of cultured osteoblasts of the UMR-106.rat osteosarcoma cells, ATCC CRL 1661 have been used as the model. Uptake of calcium in these cells has been monitored using the FURA-2 method, wherein a fluorescent dye which is specific for calcium is used as a marker for calcium change into the cells. Cells are incubated with 1-10 μM of the acetomethoxy ester of FURA-2 for 30-60 minutes. Upon uptake, the ester is hydrolyzed to release free FURA-2, which selectively binds free Ca^2+. FURA-2 has a characteristic fluorescence spectrum, which wavelength is shifted when the dye binds to free Ca^2+. According to the method, Ca^2+ which is present in the cell can be quantified by exciting the dye at two different wavelengths, 340 and 380 nm. The emission fluorescence is measured at 510 nm. […] It is conventional to report the concentration of calcium within the cell in terms of the fluorescence ratio, the 340/380 ratio. […]
Intracellular free calcium concentration was measured using the fluorescent dye FURA-2 according to the method of Grynkiewicz et al., J. Biol. Chem., 260, 3440 (1985) and Pang et al., P. N. A. S. (USA), 87, 623 (1990). […] Quantitation is obtained by exciting the dye at two different wavelengths, preferably 340 and 380 nm and measuring the fluorescent emission at 510 nm. […]

Sprague-Dawley rats = assay: In vivo blood pressure measurement in anaesthetized rats
Description: Sprague-Dawley (S-D) rats were anaesthetized with pentobarbital and a cannula was inserted into the carotid artery. The rats were kept sedated during the procedure and were injected with PTH peptides only when the blood pressure of the rats were stable. Peptides were injected through a cannula in the jugular vein, in amounts of 1, 3 and 5 or more μg/kg and the mean systolic and diastolic blood pressure was monitored continuously throughout the procedure. Results are reported with comparison to bPTH-(1-34).

[2] = system: rat tail artery helical strip; assay: In vitro rat tail artery helical strip tension assay; settings: precontracted with AVP, FIG. 20
Text: We have developed a method for modeling the hypotensive effects of natural and synthetic chemical compounds using helically cut tail arteries from Sprague-Dawley rats in a Sawyer-Bartlestone chamber, measuring the change in tension with a force displacement transducer. This method and the effect of bovine PTH-(1-34) in this system is described in Blood Vessels, 22, 57 (1985). […] FIGS. 12, 16 and 20 illustrate the effect of the PTH analogues of this invention as measured using this in vitro technique. Alternatively, the strips may be precontracted using other pressor substances such as norepinephrine (NE) or KCl.
The assay was performed according to Pang et al., Blood Vessels, 22, 57 (1985). Sprague-Dawley rats were anaesthetized with pentobarbital and the tail artery excised and placed in ice-cold Krebs-Hanseleit solution (KHS) oxygenated with 95% O2, 5% CO2. […] The force generated by the strips was measured with a Grass FT03 force displacement transducer and recorded on a polygraph. […]
One to two minutes prior to addition of a peptide, the strips were contracted by addition of either arginine vasopressin (AVP), potassium chloride (KCl) or norepinephrine (NE) to the bath. The peptide was then added to the bath and the degree of relaxation measured. […] Drug dose is calculated on the basis of the final concentration in the bath solution.

[3] = system: right atrial tissue of Sprague-Dawley rats; assay: In vitro atrial contractility and contraction rate measurement; settings: Sprague-Dawley rat right atrium; for effect on contraction rate of right atrial tissue: FIGS. 24-25
Text: We have also developed a method of modeling the chronotropic effects of natural and synthetic chemicals using the right atrium from Sprague-Dawleyrats and measuring the change in the force and rate of atrium contraction. This method and the effects of bovine PTH (1-34) in this system are described in Tenner et al, The Canadian Journal of Physiology and Pharmacology, Volume 61, No. 10 (1983) pp. 1162-1167. […] FIGS. 24-25 illustrate the effect of the PTH analogues of this invention as measured using this in vitro technique.
The assay was performed according to Tenner et al., Canadian Journal of Physiology and Pharmacology, Vol. 61, No. 10 (1983) pp. 1162-1167. Sprague-Dawley rats weighing between 100 and 250 g were treated with heparin (500 IU, i.p.) 15 minutes prior to decapitation. Thoracotomies were performed and the heart rapidly excised and placed in a cold physiological salt solution (PSS) having the following composition (in millimolar): NaCl, 120; KCl, 5.63; CaCl2, 2.0; MgCl2, 2.1; NAHCO3, 25.0; dextrose, 9.7. The solution was continuously aerated by a gas mixture of 95% O2 -5% CO2. The right atrium was isolated and suspended in a tissue chamber containing 20 mL of PSS at 37° C., pH 7.4. Atria were allowed to equilibrate for 1 hr under a resting tension of 1 g.
The atrial rate and force were determined from contractions recorded by a Grass FT.03 force-displacement transducer and a Grass model 79 polygraph. The Basial atrial rate f or control atria (as determined by counting the frequency of contractions) was 258±7 bpm (n=29). Basal developed force of the spontaneously beating right atria was 0.33±0.06 g (n=10) . Dose-response curves for the peptides were obtained by cumulative addition of the respective peptides. Drug dose is calculated on the basis of the final concentration in the bath solution.

Row | Molecule | effect on KCl-induced intracellular [Ca2+]i increase [1] | condition of rats due to blood pressure (Sprague-Dawley rats; 5 μg/kg, Sprague-Dawley rats) | relaxation of rat tail artery helical strips [2] | effect on mean arterial blood pressure (Sprague-Dawley rats; anesthetized Sprague-Dawley rats, FIGS. 15, 19) | effect on contractility of right atrial tissue ([3]; FIG. 24) | effect on contraction rate of right atrial tissue [3]
1 | PTH: parathyroid hormone (native PTH); in FIGS. 14 a-d it is bPTH-(1-34) [reference compound] | inhibits intracellar [Ca^2+ ]i increases | essentially moribund | – | – | – | –
2 | SVSEIQLMHNLGKHLNSMERVEWLAAALQDVHNF [Cs221] | comparable to the inhibition of intracellular [Ca^2+ ]i increases by hPTH; also recorded: lower intracellular calcium increments | – | least relaxation | least decrease in blood pressure | minimal effect | minimal effect
3 | B1 | – | – | – | – | – | increase the contraction rate
